Results on one compound are retold here after PMC3501516, “Anti-Diabetic Efficacy and Impact on Amino Acid Metabolism of GRA1, a Novel Small-Molecule Glucagon Receptor Antagonist” (PLoS ONE, 2012).

Like-named read-outs stand apart in the source and are kept apart here. Marks after values point to notes of the source that are not given here.

In general, IC50 refers to the concentration at which inhibition is half-maximal. Higher therefore signals weaker potency in that assay.

The target in one data set is T1, human GCGR (hGCGR) (Homo sapiens, UniProt P47871).
T1 construct: expressed in transfected cells
T1 sequence (P47871 26-477): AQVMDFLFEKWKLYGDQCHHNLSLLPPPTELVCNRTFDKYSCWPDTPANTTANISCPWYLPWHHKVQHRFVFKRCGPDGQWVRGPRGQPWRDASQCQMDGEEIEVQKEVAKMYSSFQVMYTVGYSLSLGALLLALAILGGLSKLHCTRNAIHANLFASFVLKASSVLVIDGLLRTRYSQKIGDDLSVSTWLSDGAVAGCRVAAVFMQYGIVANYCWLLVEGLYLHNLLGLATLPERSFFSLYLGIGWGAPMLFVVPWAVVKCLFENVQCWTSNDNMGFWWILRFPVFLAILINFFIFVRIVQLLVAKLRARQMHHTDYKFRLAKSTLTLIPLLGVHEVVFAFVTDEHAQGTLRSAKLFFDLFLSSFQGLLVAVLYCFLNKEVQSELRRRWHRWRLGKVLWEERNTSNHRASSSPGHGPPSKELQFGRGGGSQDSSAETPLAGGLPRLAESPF
As to the kind of experiment: Inhibition of 125I-glucagon binding to hGCGR in membranes of CHO cells expressing hGCGR. The note with it: CHO cell membranes. The text has this: (§1) Transfected Chinese hamster ovary (CHO) cell lines were acquired and maintained as previously described, [20]. These included separate cell lines stably expressing human GCGR (hGCGR), mouse GCGR, rhesus GGCR, glucose-dependent insulinotropic peptide receptor (GIPR), GLP-1 receptor (GLP-1R), pituitary adenylate cyclase-activating polypeptide receptor type 1 (PAC1R), and vasoactive adenylate cyclase-activating polypeptide receptor type 2 (VPAC2R). Inhibition of glucagon binding to hGCGR was assayed in cell membranes prepared from the line of CHO cells that expressed the hGCGR. Functional antagonism was assayed by measuring the production of cAMP in intact CHO cells stimulated by agonists specific for their cognate receptors (i.e., glucagon for GCGR-expressing cell lines, GIP for the GIPR-expressing line, etc.). Primary human hepatocytes were obtained from In Vitro Technologies (Baltimore, MD) and glucagon-stimulated glycogenolysis was studied in these as previously described.

A further data set addresses T2, GLP-1R (GLP-1 receptor) (Homo sapiens, UniProt P43220).
T2 construct: expressed in transfected cells
As to the kind of experiment: Inhibition of GLP-1-stimulated cAMP production in CHO cells expressing GLP-1R. Conditions: human GLP-1R. It is filed as cell-based.
Text: as §1
(Changes in cAMP serve as a functional read-out for many G protein-coupled receptors.)

For data set [1], the target named is T3, PAC1R (pituitary adenylate cyclase-activating polypeptide receptor type 1) (Homo sapiens, UniProt P41586).
T3 construct: expressed in transfected cells
T3 sequence (P41586 21-468): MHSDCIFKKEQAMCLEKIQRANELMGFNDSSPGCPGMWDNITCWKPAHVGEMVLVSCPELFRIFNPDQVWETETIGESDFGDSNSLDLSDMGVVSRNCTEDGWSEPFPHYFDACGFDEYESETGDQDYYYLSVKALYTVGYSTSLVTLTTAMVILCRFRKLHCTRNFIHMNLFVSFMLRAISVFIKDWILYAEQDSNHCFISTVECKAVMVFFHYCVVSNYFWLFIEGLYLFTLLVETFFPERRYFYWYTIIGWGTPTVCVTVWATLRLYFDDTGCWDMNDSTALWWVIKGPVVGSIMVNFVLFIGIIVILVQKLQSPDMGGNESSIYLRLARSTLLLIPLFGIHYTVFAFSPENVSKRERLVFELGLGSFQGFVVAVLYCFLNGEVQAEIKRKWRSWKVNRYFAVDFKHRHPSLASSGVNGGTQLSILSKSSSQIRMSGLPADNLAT
As to the kind of experiment: Inhibition of agonist-stimulated cAMP production in CHO cells expressing PAC1R. It is filed as cell-based. The note with it: PAC1-stimulated.
Text: as §1

Data set [2] concerns perfused liver from hGCGR mice. As to the kind of experiment: Glucagon-stimulated glycogenolysis in perfused liver from hGCGR mouse (13C NMR). Conditions: 50 pM glucagon.
Procedure: Livers were perfused with Ringers solution containing 6.7 mM [2-^13C]pyruvate while ^13C content (indicative of accumulated [^13C]glycogen) was monitored dynamically by nuclear magnetic resonance imaging. At time = −22 min, 0.1–3.0 uM GRA1 or vehicle was added to the perfusate; 50 pM glucagon or vehicle was added at time 0. The data are means ±SEM.
Glycogen content of perfused hGCGR mouse liver was measured as previously described [30]. In brief, livers were perfused ex vivo with Ringers solution containing 6.7 mM [2-^13C]pyruvate while ^13C content (indicative of accumulated [^13C]glycogen) was monitored dynamically by nuclear magnetic resonance imaging.
The subject of the next data set is hGCGR HFD/STZ mice. As to the kind of experiment: Antihyperglycemic efficacy in hGCGR HFD/STZ mice (acute, chronic, combination with des-fluoro-sitagliptin). In kind it is in vivo, hGCGR mouse. The text has this: The present study made use of a line of hGCGR-expressing mouse (“hGCGR mouse”) generated previously by substituting the hGCGR gene for the mouse GCGR gene. These mice were crossed with C57BL/6J.ob/+ mice (Jackson Laboratories, Bar Harbor, ME) to obtain an hGCGR.ob/+ mouse line. The hGCGR.ob/+ mice were then intercrossed to obtain hGCGR.ob/ob, hGCGR.ob/+, and hGCGR.+/+ mice (with the hGCGR.ob/+ and hGCGR.+/+ mice serving as littermate controls). […] obese (DIO) hGCGR mice were generated by maintaining hGCGR mice on a high-fat diet (HFD) in which 45–60% of calories were in fat (Product S3282, Bio-Serv, Frenchtown, NJ). High-fat-diet-streptozotocin-treated (HFD/STZ) diabetic mice were generated in-house as previously described.
Acute glucose lowering was studied in non-fasted hGCGR.ob/ob mice and HFD/STZ mice administered single doses p.o. of 1, 3 and 10 mg/kg GRA1 in 10 mL/kg 0.5% aqueous methylcellulose. Animals were fasted during the interval between dosing and the final blood glucose measurement. Glucose was measured in blood from tail bleeds using a OneTouch glucometer. In the experiments with hGCGR HFD/STZ mice, treatment groups were matched with respect to body weight and blood glucose levels.
Animals were dosed chronically with GRA1 and the DPP-4 inhibitor des-fluoro-sitagliptin by administering these agents as food admixtures. The admixtures were prepared in-house and by Research Diets (New Brunswick, NJ), with drug concentrations adjusted weekly on the basis of average food consumption and animal weight to provide targeted daily doses. In the GRA1 experiments, the targeted doses were 3, 6, 10, and 30 mg/kg•day. In des-fluoro-sitagliptin experiments, the targeted dose was 200 mg/kg•day, a relatively high amount necessary because this compound has a half-life in rodents of 1–2 h.
Plasma glucagon and active GLP-1 were measured using commercial ELISA kits (Linco Research Immunoassay, St. Charles, MO). […] Plasma insulin was determined by ELISA with a commercial kit (ALPCO Diagnostics, Windham, NH). Plasma concentrations of glycated hemoglobin A1c (HbA1c) were measured using a Micromat II test kit from Bio-Rad Laboratories (Hercules, CA). Total cholesterol, low-density lipoprotein cholesterol (LDL-c) and non-LDL-c, and aspartate aminotransferase were measured using a Roche P Modular Clinical Chemistry analyzer (Indianapolis, IN).
Figure 5 GRA1 lowers glucose in hGCGR HFD/STZ mice and further enhances the efficacy of a DPP-4 inhibitor. (A) Mean (±SEM) blood glucose hGCGR HFD/STZ mice treated with a single dose of 1, 3, or 10 mg/kg GRA1. (B) Non-fasted blood glucose concentrations in hGCGR HFD/STZ mice treated for 6 weeks with 10 mg/kg·day GRA1, 200 mg/kg·day des-fluoro-sitagliptin (des-F-sita), or the two agents in combination. (Additional data from this study are in Table 4.) *p<0.05, **p<0.01, and ***p<0.001 versus HFD/STZ controls; ^#non-significant (p>0.05) versus non-STZ controls; n = 8–15 animals per group.

The conditions of data set [3]: hGCGR.ob/ob mice, 10 mg/kg•day food admixture, 5 weeks.
The next data set in a line: in vivo. The note with it: hGCGR.ob/ob, mouse, 3 mg/kg.

T2 sequence (P43220 24-463): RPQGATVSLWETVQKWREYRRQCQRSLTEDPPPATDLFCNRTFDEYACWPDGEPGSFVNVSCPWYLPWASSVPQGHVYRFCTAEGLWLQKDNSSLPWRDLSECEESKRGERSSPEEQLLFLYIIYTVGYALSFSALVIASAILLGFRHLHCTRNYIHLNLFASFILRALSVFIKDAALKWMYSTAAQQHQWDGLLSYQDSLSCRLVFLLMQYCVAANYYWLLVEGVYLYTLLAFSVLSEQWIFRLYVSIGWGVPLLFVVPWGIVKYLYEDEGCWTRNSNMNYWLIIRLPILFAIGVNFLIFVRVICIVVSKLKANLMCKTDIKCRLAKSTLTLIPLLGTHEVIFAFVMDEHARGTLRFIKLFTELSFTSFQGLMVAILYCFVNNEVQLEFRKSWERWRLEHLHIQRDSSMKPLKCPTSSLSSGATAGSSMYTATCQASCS

Take `COc1ccc2cc(-c3cc(-c4cc(C(F)(F)F)ccc4F)nn3[C@@H](C)c3ccc(C(=O)NCCC(=O)O)cc3)ccc2c1` [GRA1, N-[4-((1S)-1-{3-(2-fluoro-5-trifluoromethylphenyl)-5-[6-methoxynaphth-2-yl]-1H-pyrazol-1-yl}ethyl)benzoyl]-β-alanine]: the IC50 at human GCGR (hGCGR) stood at 0.004 µM; on GLP-1R (GLP-1 receptor) it was 7.9 µM; in data set [1] it was 7.85 µM. Further, the “Reduction of hepatic response to glucagon (13C glycogen loss)” value in data set [2] (0.3 µM GRA1 pretreatment) is “about 50%”. Besides, the “Hepatic response to glucagon (13C glycogen loss)” value in data set [2] (1 µM GRA1 pretreatment) and in data set [2] (3 µM GRA1 pretreatment) was “completely prevented” throughout. For the same compound, the HbA1c in the data set on hGCGR HFD/STZ mice (5 weeks of treatment, GRA1 10 mg/kg, Des-F-sita 200 mg/kg, control diet 6.1±0.4) came out at 5.6±0.4%. Moreover, the “6-h fasting blood glucose” value in the data set on hGCGR HFD/STZ mice (5 weeks of treatment, GRA1 10 mg/kg, Des-F-sita 200 mg/kg, control diet 323±33) was 297 ± 39 mg/dL. For the same compound, in the data set with hGCGR HFD/STZ mice (6 weeks, GRA1 10 mg/kg·day, des-fluoro-sitagliptin 200 mg/kg·day), the “Antihyperglycemic effect during chronic dosing (non-fasted blood glucose)” value is “significant and sustained”. Besides, in the data set with hGCGR HFD/STZ mice (6 weeks, necropsy tissue, GRA1 10 mg/kg, Des-F-sita 200 mg/kg, control diet 143±10), the “Liver Triglyceride” value came to 163 ± 11 µg/mg. For the same compound, in the data set on hGCGR HFD/STZ mice (6 weeks, terminal plasma, GRA1 10 mg/kg, Des-F-sita 200 mg/kg, control diet 1.4±0.2), the Free fatty acid worked out at 1.3 ± 0.3 mM. Also, in the data set with hGCGR HFD/STZ mice (6 weeks, terminal plasma, GRA1 10 mg/kg, Des-F-sita 200 mg/kg, control diet 2.5±0.1), the “Active GLP-1” value amounted to 2.7 ± 0.1 pM. Further, in the data set on hGCGR HFD/STZ mice (6 weeks, terminal plasma, GRA1 10 mg/kg, Des-F-sita 200 mg/kg, control diet 8.1±1.1), the “Inactive GLP-1” value worked out at 8.6 ± 0.4 pM. Moreover, the Plasma glucagon in the data set on hGCGR HFD/STZ mice (6 weeks, terminal plasma, GRA1 10 mg/kg, Des-F-sita 200 mg/kg, control diet 133±21) is on record as 209±24* pg/ml. Besides, the Triglyceride in the data set with hGCGR HFD/STZ mice (6 weeks, terminal plasma, GRA1 10 mg/kg, Des-F-sita 200 mg/kg, control diet 184±26) is on record as 145±22* mg/dL. For the same compound, the “Blood glucose after single dose versus non-diabetic controls” value in the data set with hGCGR HFD/STZ mice (single dose 10 mg/kg) is “comparable to those observed in non-diabetic control animals for 24 h”. In the data set with hGCGR HFD/STZ mice (single doses of 3 and 10 mg/kg), the “Effect on blood glucose, single dose” value is “reduced blood glucose significantly and substantially”. Moreover, the figures for the “Mean GRA1 plasma concentration” value in data set [3] (4 PM) and in data set [3] (9AM) were 0.77 ± 0.2 µM and 1.7 ± 0.5 µM, respectively. Further, the concentration at 1 h in the data set “in vivo” is 1120 ± 800 nM. In “in vivo”, the concentration at 3 h was 920 ± 100 nM.
